PubChem BioAssay (NCI)
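Exposure lasted 48 hours, with cells grown in 96-well plates and compounds tested at five concentrations. GI50: concentration for 50% inhibition of growth. TGI denotes the concentration required for complete inhibition of growth.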

Key:
Assay in all cases: NCI anticancer screen, dose series, 48 h
RPMI-8226 leukemia = tested on: RPMI-8226 leukemia
MDA-MB-231 breast = tested on: MDA-MB-231 breast
SF-295 CNS = tested on: SF-295 CNS
K-562 leukemia = tested on: K-562 leukemia
UACC-257 melanoma = tested on: UACC-257 melanoma
SN12C renal = tested on: SN12C renal
NCI-H460 lung = tested on: NCI-H460 lung
ACHN renal = tested on: ACHN renal
UO-31 renal = tested on: UO-31 renal
OVCAR-8 ovarian = tested on: OVCAR-8 ovarian
OVCAR-5 ovarian = tested on: OVCAR-5 ovarian
MDA-MB-435 = tested on: MDA-MB-435
M14 melanoma = tested on: M14 melanoma
NCI-H23 lung = tested on: NCI-H23 lung
HOP-62 NSCLC = tested on: HOP-62 NSCLC
PC-3 prostate = tested on: PC-3 prostate
UACC-62 melanoma = tested on: UACC-62 melanoma
LOX IMVI melanoma = tested on: LOX IMVI melanoma
BT-549 breast = tested on: BT-549 breast
SF-268 CNS = tested on: SF-268 CNS
NCI-H226 lung = tested on: NCI-H226 lung
HCT-116 colon = tested on: HCT-116 colon
OVCAR-4 ovarian = tested on: OVCAR-4 ovarian
SW-620 colon = tested on: SW-620 colon
HT29 colon = tested on: HT29 colon
IGROV1 ovarian = tested on: IGROV1 ovarian
MDA-MB-468 breast = tested on: MDA-MB-468 breast
NCI-H522 lung = tested on: NCI-H522 lung
HCC-2998 colon = tested on: HCC-2998 colon

## COc1ccc(-c2nc(S(=O)(=O)c3ccc(C)cc3)c(S(C)(=O)=O)o2)cc1
RPMI-8226 leukemia
  GI50: 3.05 µM
  TGI: 17.3 µM
MDA-MB-231 breast
  GI50: 1.73 µM
  TGI: 3.35 µM
SF-295 CNS
  GI50: 14.6 µM
  TGI: 27.8 µM
K-562 leukemia
  GI50: 2.91 µM
  TGI: > 100 µM
UACC-257 melanoma
  GI50: 9.8 µM
  TGI: 23.1 µM
SN12C renal
  GI50: 4.94 µM
  TGI: 17.6 µM
NCI-H460 lung
  GI50: 10.1 µM
  TGI: 24.1 µM
ACHN renal
  GI50: 1.72 µM
  TGI: 3.11 µM
UO-31 renal
  GI50: 3.43 µM
  TGI: 15.3 µM
OVCAR-8 ovarian
  GI50: 10.5 µM
  TGI: 27.1 µM
OVCAR-5 ovarian
  GI50: 10.9 µM
  TGI: 23.1 µM
MDA-MB-435
  GI50: 5.3 µM
  TGI: 19.6 µM
M14 melanoma
  GI50: 1.95 µM
  TGI: 4.59 µM
NCI-H23 lung
  GI50: 5.57 µM
  TGI: 19.1 µM
HOP-62 NSCLC
  GI50: 20.2 µM
  TGI: 40 µM
PC-3 prostate
  GI50: 11.1 µM
  TGI: 25.6 µM
UACC-62 melanoma
  GI50: 7.59 µM
  TGI: 20.4 µM
LOX IMVI melanoma
  GI50: 1.56 µM
  TGI: 2.96 µM
BT-549 breast
  GI50: 3.39 µM
  TGI: 10 µM
SF-268 CNS
  GI50: 12.5 µM
  TGI: 30 µM
NCI-H226 lung
  GI50: 16.9 µM
  TGI: 38.5 µM
HCT-116 colon
  GI50: 1.78 µM
  TGI: 3.34 µM
OVCAR-4 ovarian
  GI50: 3.1 µM
  TGI: 11.1 µM
SW-620 colon
  GI50: 1.66 µM
  TGI: 3.32 µM
HT29 colon
  GI50: 2.09 µM
  TGI: 4.37 µM
IGROV1 ovarian
  GI50: 7.16 µM
  TGI: 20.4 µM
MDA-MB-468 breast
  GI50: 1.6 µM
  TGI: 3.23 µM
NCI-H522 lung
  GI50: 1.66 µM
  TGI: 3.28 µM
HCC-2998 colon
  GI50: 7.61 µM
  TGI: 21.1 µM
